Laboratory results published in patent US20250296959A1, “B7-H3 TARGETING PEPTIDES AND CONSTRUCTS THEREOF” (Mariana Oncology Inc., priority 2024, published 2025).
Starred links: 1 amine or outer side, 2 acyl side, 3 side chain; linkers in the order of their positions; H or OH if unused. Positions of bridges follow the written chain, without caps; N, C: chain ends. Non-standard residues stand in square brackets, D forms with d. Residues, ends and D or L forms follow the SMILES beside them. Groups on a side chain read outwards from the residue. *: point of attachment. Ala(1-CH2CO2H-4-piperidyl) = N[C@@H](CC1CCN(CC(=O)O)CC1)C(=O)O; Ala(piperidin-4-yl) = O=C([C@H](CC1CCN([*:3])CC1)N[*:1])[*:2]; DOTA = O=C(O)CN1CCN(CC(=O)O)CCN(CC(=O)*)CCN(CC(=O)O)CC1; Trp(1-CH2COOH) = N[C@@H](Cc1cn(CC(=O)O)c2ccccc12)C(=O)O; Trp(5-F) = N[C@@H](Cc1c[nH]c2ccc(F)cc12)C(=O)O; C16 diacid = O=C(O)CCCCCCCCCCCCCCC(=O)*; γGlu = O=C(O)[C@H](CCC(=O)[*:2])N[*:1]; Ala(4-THP) = N[C@@H](CC1CCOCC1)C(=O)O; hLeu(5-Me) = CC(C)(C)CC[C@H](N)C(=O)O; Val(3-OH) = CC(C)(O)[C@H](N)C(=O)O; PEG4 = NCCOCCOCCOCCOCCC(=O)O; Tle = CC(C)(C)[C@H](N)C(=O)O; hLeu = CC(C)CC[C@H](N)C(=O)O; PEG1 = NCCOCCC(=O)O; AEA = NCCOCC(=O)O; Sar = CNCC(=O)O

molecular target: T1, human 4lg B7-H3 (Homo sapiens, UniProt Q5ZPR3); assay: Affinity determination by surface plasmon resonance (SPR) to 4Ig B7-H3; details: SPR KD—37° C., 4Ig B7-H3; 37° C. flow cell temperature
T1 sequence (Q5ZPR3 29-534): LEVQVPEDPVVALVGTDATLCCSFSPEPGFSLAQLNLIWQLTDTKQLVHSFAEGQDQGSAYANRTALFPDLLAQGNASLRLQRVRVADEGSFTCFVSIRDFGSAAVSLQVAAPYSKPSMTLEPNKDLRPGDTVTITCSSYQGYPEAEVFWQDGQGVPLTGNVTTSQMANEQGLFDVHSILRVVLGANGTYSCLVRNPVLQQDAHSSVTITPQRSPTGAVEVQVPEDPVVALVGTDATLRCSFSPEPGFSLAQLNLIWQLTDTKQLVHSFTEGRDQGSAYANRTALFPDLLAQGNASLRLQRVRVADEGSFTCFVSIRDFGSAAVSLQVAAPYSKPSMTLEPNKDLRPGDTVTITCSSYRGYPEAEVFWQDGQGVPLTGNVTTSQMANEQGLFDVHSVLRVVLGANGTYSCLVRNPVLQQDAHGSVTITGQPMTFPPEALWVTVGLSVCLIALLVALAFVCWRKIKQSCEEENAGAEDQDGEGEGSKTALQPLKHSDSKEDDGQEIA

| Structure (SMILES) | Kd [nM] |
| --- | --- |
| CC(=O)N[C@@H](CCC(C)C)C(=O)N[C@@H](Cc1ccc(O)cc1)C(=O)N[C@H]1CSSC[C@@H](C(=O)N[C@@H](Cc2c[nH]c3ccc(F)cc23)C(=O)N[C@@H](Cc2ccccc2)C(=O)N[C@H](C(=O)N[C@H](CCCCNC(=O)CN2CCN(CC(=O)O)CCN(CC(=O)O)CCN(CC(=O)O)CC2)C(=O)O)C(C)(C)O)NC(=O)[C@H](Cc2ccc(O)cc2)NC(=O)[C@H](C(C)C)NC(=O)[C@H](CC(=O)O)NC(=O)[C@H](CC2CCOCC2)NC(=O)[C@H](CCCCN)NC(=O)CN(C)C(=O)[C@H]([C@@H](C)O)NC1=O [compound 386, Ac-hLeu-Y-C-Thr-Sar-K-ThpA-D-V-Y-C-5FW-F-hydroxyVal-dLys(DOTA)-COOH] (Ac-[hLeu]YCT[Sar]K[Ala(4-THP)]DVYC[Trp(5-F)]F[Val(3-OH)][dK](DOTA)-OH; disulfide 3-11) | 1 to 10 |
| CC(C)CC[C@H](NC(=O)COCCNC(=O)[C@H](CCC(=O)O)NC(=O)CN1CCN(CC(=O)O)CCN(CC(=O)O)CCN(CC(=O)O)CC1)C(=O)N[C@@H](Cc1ccc(O)cc1)C(=O)N[C@H]1CSSC[C@@H](C(=O)N[C@@H](Cc2c[nH]c3ccc(F)cc23)C(=O)N[C@@H](Cc2ccccc2)C(=O)N[C@H](C(N)=O)C(C)(C)O)NC(=O)[C@H](Cc2ccc(O)cc2)NC(=O)[C@H](C(C)C)NC(=O)[C@H](CC(=O)O)NC(=O)[C@H](CC2CCOCC2)NC(=O)[C@H](CCCCN)NC(=O)CNC(=O)[C@H](C(C)(C)C)NC1=O [compound 392, DOTA-Glu-AEA-hLeu-Y-C-Tbg-G-K-ThpA-D-V-Y-C-5FW-F-hydroxyVal-CONH2] ({DOTA}-E[AEA][hLeu]YC[Tle]GK[Ala(4-THP)]DVYC[Trp(5-F)]F[Val(3-OH)]-NH2; disulfide 5-13) | 1 to 10 |
| CC(C)CC[C@H](NC(=O)COCCNC(=O)CC[C@H](NC(=O)CN1CCN(CC(=O)O)CCN(CC(=O)O)CCN(CC(=O)O)CC1)C(=O)O)C(=O)N[C@@H](Cc1ccc(O)cc1)C(=O)N[C@H]1CSSC[C@@H](C(=O)N[C@@H](Cc2c[nH]c3ccc(F)cc23)C(=O)N[C@@H](Cc2ccccc2)C(=O)N[C@H](C(N)=O)C(C)(C)O)NC(=O)[C@H](Cc2ccc(O)cc2)NC(=O)[C@H](C(C)C)NC(=O)[C@H](CC(=O)O)NC(=O)[C@H](CC2CCOCC2)NC(=O)[C@H](CCCCN)NC(=O)CNC(=O)[C@H](C(C)(C)C)NC1=O [compound 393, DOTA-gE-AEA-hLeu-Y-C-Tbg-G-K-ThpA-D-V-Y-C-5FW-F-hydroxyVal-CONH2] ({DOTA-γGlu-AEA}-[hLeu]YC[Tle]GK[Ala(4-THP)]DVYC[Trp(5-F)]F[Val(3-OH)]-NH2; disulfide 3-11) | 1 to 10 |
| CC(C)CC[C@H](NC(=O)CCOCCNC(=O)[C@H](CCC(=O)O)NC(=O)CN1CCN(CC(=O)O)CCN(CC(=O)O)CCN(CC(=O)O)CC1)C(=O)N[C@@H](Cc1ccc(O)cc1)C(=O)N[C@H]1CSSC[C@@H](C(=O)N[C@@H](Cc2c[nH]c3ccc(F)cc23)C(=O)N[C@@H](Cc2ccccc2)C(=O)N[C@H](C(N)=O)C(C)(C)O)NC(=O)[C@H](Cc2ccc(O)cc2)NC(=O)[C@H](C(C)C)NC(=O)[C@H](CC(=O)O)NC(=O)[C@H](CC2CCOCC2)NC(=O)[C@H](CCCCN)NC(=O)CNC(=O)[C@H](C(C)(C)C)NC1=O [compound 394, DOTA-Glu-PEG1-hLeu-Y-C-Tbg-G-K-ThpA-D-V-Y-C-5FW-F-hydroxyVal-CONH2] ({DOTA}-E[PEG1][hLeu]YC[Tle]GK[Ala(4-THP)]DVYC[Trp(5-F)]F[Val(3-OH)]-NH2; disulfide 5-13) | 1 to 10 |
| CC(C)CC[C@H](NC(=O)CCOCCNC(=O)CC[C@H](NC(=O)CN1CCN(CC(=O)O)CCN(CC(=O)O)CCN(CC(=O)O)CC1)C(=O)O)C(=O)N[C@@H](Cc1ccc(O)cc1)C(=O)N[C@H]1CSSC[C@@H](C(=O)N[C@@H](Cc2c[nH]c3ccc(F)cc23)C(=O)N[C@@H](Cc2ccccc2)C(=O)N[C@H](C(N)=O)C(C)(C)O)NC(=O)[C@H](Cc2ccc(O)cc2)NC(=O)[C@H](C(C)C)NC(=O)[C@H](CC(=O)O)NC(=O)[C@H](CC2CCOCC2)NC(=O)[C@H](CCCCN)NC(=O)CNC(=O)[C@H](C(C)(C)C)NC1=O [compound 395, DOTA-gE-PEG1-hLeu-Y-C-Tbg-G-K-ThpA-D-V-Y-C-5FW-F-hydroxyVal-CONH2] ({DOTA-γGlu-PEG1}-[hLeu]YC[Tle]GK[Ala(4-THP)]DVYC[Trp(5-F)]F[Val(3-OH)]-NH2; disulfide 3-11) | 1 to 10 |
| CC(=O)N[C@@H](CCC(C)C)C(=O)N[C@@H](Cc1ccc(O)cc1)C(=O)N[C@H]1CSSC[C@@H](C(=O)N[C@@H](Cc2cn(CC(=O)O)c3ccccc23)C(=O)N[C@@H](Cc2ccccc2)C(=O)N[C@H](C(=O)N[C@H](CCCCNC(=O)CN2CCN(CC(=O)O)CCN(CC(=O)O)CCN(CC(=O)O)CC2)C(=O)O)C(C)(C)O)NC(=O)[C@H](Cc2ccc(O)cc2)NC(=O)[C@H](C(C)C)NC(=O)[C@H](CC(=O)O)NC(=O)[C@H](CC2CCOCC2)NC(=O)[C@H](CCCCN)NC(=O)CNC(=O)[C@H](C(C)(C)C)NC1=O [compound 396, Ac-hLeu-Y-C-Tbg-G-K-ThpA-D-V-Y-C-Trp(CH2COOH)-F-hydroxyVal-dLys(DOTA)-COOH] (Ac-[hLeu]YC[Tle]GK[Ala(4-THP)]DVYC[Trp(1-CH2COOH)]F[Val(3-OH)][dK](DOTA)-OH; disulfide 3-11) | 100 to 300 |
| CC(=O)N[C@@H](CCC(C)(C)C)C(=O)N[C@@H](Cc1ccc(O)cc1)C(=O)N[C@H]1CSSC[C@@H](C(=O)N[C@@H](Cc2c[nH]c3ccc(F)cc23)C(=O)N[C@@H](Cc2ccccc2)C(=O)N[C@H](C(=O)N[C@H](CCCCNC(=O)CN2CCN(CC(=O)O)CCN(CC(=O)O)CCN(CC(=O)O)CC2)C(=O)O)C(C)(C)O)NC(=O)[C@H](Cc2ccc(O)cc2)NC(=O)[C@H](C(C)C)NC(=O)[C@H](CC(=O)O)NC(=O)[C@H](CC2CCOCC2)NC(=O)[C@H](CCCCN)NC(=O)CNC(=O)[C@H](C(C)(C)C)NC1=O [compound 397, Ac-hTba-Y-C-Tbg-G-K-ThpA-D-V-Y-C-5FW-F-hydroxyVal-dLys(DOTA)-COOH] (Ac-[hLeu(5-Me)]YC[Tle]GK[Ala(4-THP)]DVYC[Trp(5-F)]F[Val(3-OH)][dK](DOTA)-OH; disulfide 3-11) | 10 to 100 |
| CC(=O)N[C@@H](CCC(C)C)C(=O)N[C@@H](Cc1ccc(O)cc1)C(=O)N[C@H]1CSSC[C@@H](C(=O)N[C@@H](Cc2c[nH]c3ccc(F)cc23)C(=O)N[C@@H](Cc2ccccc2)C(=O)N[C@H](C(N)=O)C(C)(C)O)NC(=O)[C@H](Cc2ccc(O)cc2)NC(=O)[C@H](C(C)C)NC(=O)[C@H](CC(=O)O)NC(=O)[C@H](CC2CCOCC2)NC(=O)[C@H](CCCCN)NC(=O)CNC(=O)[C@H](C(C)(C)C)NC1=O [compound 404, Ac-hLeu-Y-C-Tbg-G-K-ThpA-D-V-Y-C-5FW-F-hydroxyVal-CONH2] (Ac-[hLeu]YC[Tle]GK[Ala(4-THP)]DVYC[Trp(5-F)]F[Val(3-OH)]-NH2; disulfide 3-11) | 1 to 10 |
| CC(=O)N[C@@H](CCC(C)C)C(=O)N[C@@H](Cc1ccc(O)cc1)C(=O)N[C@H]1CSSC[C@@H](C(=O)N[C@@H](Cc2c[nH]c3ccc(F)cc23)C(=O)N[C@@H](Cc2ccccc2)C(=O)N[C@H](C(=O)N[C@H](CCCCNC(=O)CN2CCN(CC(=O)O)CCN(CC(=O)O)CCN(CC(=O)O)CC2)C(=O)O)C(C)(C)O)NC(=O)[C@H](Cc2ccc(O)cc2)NC(=O)[C@H](C(C)C)NC(=O)[C@H](CC(=O)O)NC(=O)[C@H](CC2CCOCC2)NC(=O)[C@H](CCCCNC(=O)CC[C@H](NC(=O)CCCCCCCCCCCCCCC(=O)O)C(=O)O)NC(=O)CNC(=O)[C@H](C(C)(C)C)NC1=O [compound 405, Ac-hLeu-Y-C-Tbg-G-K(yE-C16OH)-ThpA-D-V-Y-C-5FW-F-hydroxyVal-dLys(DOTA)-COOH] (Ac-[hLeu]YC[Tle]GK([γGlu-C16 diacid])[Ala(4-THP)]DVYC[Trp(5-F)]F[Val(3-OH)][dK](DOTA)-OH; disulfide 3-11) | 10 to 100 |
| CC(=O)N[C@@H](CCC(C)C)C(=O)N[C@@H](Cc1ccc(O)cc1)C(=O)N[C@H]1CSSC[C@@H](C(=O)N[C@@H](Cc2c[nH]c3ccc(F)cc23)C(=O)N[C@@H](Cc2ccccc2)C(=O)N[C@H](C(=O)N[C@H](CCC(=O)O)C(N)=O)C(C)(C)O)NC(=O)[C@H](Cc2ccc(O)cc2)NC(=O)[C@H](C(C)C)NC(=O)[C@H](CC(=O)O)NC(=O)[C@H](CC2CCOCC2)NC(=O)[C@H](CC2CCN(C(=O)CCOCCOCCOCCOCCNC(=O)CN3CCN(CC(=O)O)CCN(CC(=O)O)CCN(CC(=O)O)CC3)CC2)NC(=O)CNC(=O)[C@H](C(C)(C)C)NC1=O [compound 409, Ac-hLeu-Y-C-Tbg-G-Pip(PEG4-DOTA)Ala-ThpA-D-V-Y-C-5FW-F-hydroxyVal-dGlu-CONH2] (Ac-[hLeu]YC[Tle]G[Ala(piperidin-4-yl)]([PEG4-DOTA])[Ala(4-THP)]DVYC[Trp(5-F)]F[Val(3-OH)][dE]-NH2; disulfide 3-11) | 1 to 10 |
| CC(=O)N[C@@H](CCC(C)C)C(=O)N[C@@H](Cc1ccc(O)cc1)C(=O)N[C@H]1CSSC[C@@H](C(=O)N[C@@H](Cc2c[nH]c3ccc(F)cc23)C(=O)N[C@@H](Cc2ccccc2)C(=O)N[C@H](C(N)=O)C(C)(C)O)NC(=O)[C@H](Cc2ccc(O)cc2)NC(=O)[C@H](C(C)C)NC(=O)[C@H](CC(=O)O)NC(=O)[C@H](CC2CCN(CC(=O)O)CC2)NC(=O)[C@H](CCCCNC(=O)CN2CCN(CC(=O)O)CCN(CC(=O)O)CCN(CC(=O)O)CC2)NC(=O)CNC(=O)[C@H](C(C)(C)C)NC1=O [compound 419, Ac-hLeu-Y-C-Tbg-G-Lys(DOTA)-Pip(CH2COOH)Ala-D-V-Y-C-5FW-F-hydroxyVal-CONH2] (Ac-[hLeu]YC[Tle]GK(DOTA)[Ala(1-CH2CO2H-4-piperidyl)]DVYC[Trp(5-F)]F[Val(3-OH)]-NH2; disulfide 3-11) | 1 to 10 |
